From patent US12497403B2, “Factor XIa inhibitors” (Merck Sharp & Dohme LLC, priority 2021, dated 2025) come the findings set out here.

Values after ≈ are worked out from the molar mass of the structure shown. Where two headings read alike, the source gives them in different places.

Data set [1] can be described thus: High-throughput (HT) solubility determination. The data set is classed as physicochemical. The note with it: kinetic from dmso stock. On the procedure: The chromatographic system consists of an Agilent 1290 UPLC/DAD system and ChemStation software, both from Agilent Technologies, USA. The separations are carried out on a Supelco Ascentis Express C18, 30 mm×3.0 mm I.D., 2.7 μm HPLC column. The mobile phase consists of Potassium phosphate buffered at pH 7 (mobile phase A) and acetonitrile (mobile phase B). The column oven temperature is set to 30° C. and the UPLC analysis consists of a gradient. The injection volume is 2 μL and the spectrophotometric detection is set to 215 and 238 nm.
A 10 mM stock solution of the compound in DMSO is supplied for analysis. 2.5 μL of stock solution (10 mM) was diluted into 247.5 μL of organic co-solvents (10% MeCN/80% MeOH/10% DMSO, v/v/v) to create a standard solution of 100 μM. To create the solubility solutions, 4.1 μL of 10 mM DMSO stock solution was diluted into […] of phosphate buffered saline (PBS) (pH 7) solution. A second 4.1 μL aliquot of 10 mM DMSO stock solution was added to 196 μL of PBS (pH 2) solution. A third 4.1 uL aliquot of 10 mM DMSO stock solution was added to 196 uL of FaSSIF (pH 6.5) solution. […] The equilibrated solubility solutions were filtered by centrifugation using a filter (0.45 μm, polypropylene). 50 μL each of the 100 μM standard solution and the filtered equilibrated solubility solutions were placed into a 384 well plate, and the plate was subsequently heat sealed.
Each standard and solubility solution was analyzed by UPLC/DAD. The solubility value was calculated by the following equation: Solubility=(Peak area of sample/Peak area of standard) (Standard concentration)

In a further data set the target is T1, Human plasma kallikrein (Homo sapiens, UniProt P03952).
T1 construct: yields a heavy chain (371 amino acids) and a light chain (248 amino acids); purchased Enzyme Research Laboratories
As to the kind of experiment: Kallikrein assay (plasma kallikrein). It is filed as biochemical. The settings on record: purified Human plasma kallikrein 0.5 nM, Acetyl-K-P-R-AFC substrate, pH 7.4; read-out: pKal IC50. On the procedure:
The effectiveness of a compound of the present invention as an inhibitor of Kallikrein can be determined using a relevant purified serine protease, and an appropriate synthetic substrate. The rate of hydrolysis of the chromogenic or fluorogenic substrate by the relevant serine protease was measured both in the absence and presence of compounds of the present invention. Assays were conducted at room temperature or at 37° C. […] A decrease in the rate of fluorescence change in the presence of inhibitor is indicative of enzyme inhibition. Such methods are known to one skilled in the art. The results of this assay are expressed as the half-maximal inhibitory concentrations (IC50), or the inhibitory constant. Ki.
Kallikrein determinations were made in 50 mM HEPES buffer at pH 7.4 containing 150 mM NaCl, 5 mM CaCl2, and 0.1% PEG 8000 (polyethylene glycol; Fisher Scientific). Determinations were made using purified Human plasma kallikrein at a final concentration of 0.5 nM (Enzyme Research Laboratories) and the synthetic substrate. Acetyl-K-P-R-AFC (Sigma # C6608) at a concentration of […].
Activity assays were performed by diluting a stock solution of substrate at least tenfold to a final concentration≤ 0.2 Km into a solution containing enzyme or enzyme equilibrated with inhibitor. Times required to achieve equilibration between enzyme and inhibitor were determined in control experiments. The reactions were performed under linear progress curve conditions and fluorescence increase measured at 405 Ex/510 Em nm. Values were converted to percent inhibition of the control reaction (after subtracting 100% Inhibition value). IC50 was determined by inflection point from a four parameter logistic curve fit. Ki was calculated using the Cheng Prusoff equation. Ki=IC50/(1+([S]/Km)).

Data set [2] has as its target T2, Human Norepinephrine Transporter (NET) (Homo sapiens, UniProt P23975).
T2 construct: host or cells: MDCK cells
As to the kind of experiment: Norepinephrine Transporter functional antagonist uptake assay. The data set is classed as cell-based. The settings on record: [3H]Norepinephrine uptake, human recombinant NET in MDCK cells. On the procedure: Human Norepinephrine Transporter (NET) Functional Antagonist Uptake Assay was carried out at Panlabs Cerep (assay#302100). Human recombinant norepinephrine transporter expressed in MDCK cells were plated overnight. Test compound and/or vehicle was pre-incubated with cells (2×10E5/ml) in modified Tris-HEPES buffer pH 7.1 for 20 minutes at 25° C. and 25 nM [3H]Norepinephrine was then added for an additional 15 minute incubation period. A lysate was obtained from solubilized cells and counted to determine [3H]Norepinephrine uptake. Reduction of [3H]Norepinephrine uptake by 50 percent or more (≥50%) relative to 10 μM desipramine indicates significant inhibitory activity. Compounds are screened at 10, 3, 1, 0.3, 0.1, 0.03, 0.01 and 0.003 μM. These same concentrations are concurrently applied to a separate group of untreated cells and evaluated for possible compound-induced cytotoxicity only if significant inhibition of uptake is observed. IC50 values were determined by a non-linear, least squares regression analysis using MathIQTM (IDBusiness Solutions Ltd., UK).

The mark [3] stands for this setting: FaSSIF pH 6.5, shaken 24 hours at 25° C., read-out: pH 6.5 (FaSSIF) solubility.
Where [4] appears, read: phosphate buffered saline (PBS) pH 2, aqueous buffer, PBS pH 2, shaken 24 hours at 25° C., read-out: pH 2 solubility.

T1 sequence (P03952 391-638 limits assumed): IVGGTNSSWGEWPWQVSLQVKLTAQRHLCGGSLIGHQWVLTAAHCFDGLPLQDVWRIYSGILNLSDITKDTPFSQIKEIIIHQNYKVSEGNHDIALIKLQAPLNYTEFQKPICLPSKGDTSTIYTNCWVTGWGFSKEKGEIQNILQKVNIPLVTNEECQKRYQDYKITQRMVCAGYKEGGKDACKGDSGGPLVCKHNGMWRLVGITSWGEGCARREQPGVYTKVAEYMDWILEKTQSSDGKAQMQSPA
T1 sequence (P03952 20-390 partner limits assumed): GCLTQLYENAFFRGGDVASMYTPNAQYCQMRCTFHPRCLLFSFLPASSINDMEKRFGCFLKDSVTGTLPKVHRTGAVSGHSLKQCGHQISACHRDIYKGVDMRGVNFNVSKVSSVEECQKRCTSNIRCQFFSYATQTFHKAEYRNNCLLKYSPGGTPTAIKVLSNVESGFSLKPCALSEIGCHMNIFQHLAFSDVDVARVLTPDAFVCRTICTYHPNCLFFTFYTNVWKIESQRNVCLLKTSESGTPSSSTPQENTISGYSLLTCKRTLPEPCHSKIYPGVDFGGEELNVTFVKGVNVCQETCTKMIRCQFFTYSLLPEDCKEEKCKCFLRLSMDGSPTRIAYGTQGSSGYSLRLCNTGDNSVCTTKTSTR
T2 sequence (P23975 whole entry): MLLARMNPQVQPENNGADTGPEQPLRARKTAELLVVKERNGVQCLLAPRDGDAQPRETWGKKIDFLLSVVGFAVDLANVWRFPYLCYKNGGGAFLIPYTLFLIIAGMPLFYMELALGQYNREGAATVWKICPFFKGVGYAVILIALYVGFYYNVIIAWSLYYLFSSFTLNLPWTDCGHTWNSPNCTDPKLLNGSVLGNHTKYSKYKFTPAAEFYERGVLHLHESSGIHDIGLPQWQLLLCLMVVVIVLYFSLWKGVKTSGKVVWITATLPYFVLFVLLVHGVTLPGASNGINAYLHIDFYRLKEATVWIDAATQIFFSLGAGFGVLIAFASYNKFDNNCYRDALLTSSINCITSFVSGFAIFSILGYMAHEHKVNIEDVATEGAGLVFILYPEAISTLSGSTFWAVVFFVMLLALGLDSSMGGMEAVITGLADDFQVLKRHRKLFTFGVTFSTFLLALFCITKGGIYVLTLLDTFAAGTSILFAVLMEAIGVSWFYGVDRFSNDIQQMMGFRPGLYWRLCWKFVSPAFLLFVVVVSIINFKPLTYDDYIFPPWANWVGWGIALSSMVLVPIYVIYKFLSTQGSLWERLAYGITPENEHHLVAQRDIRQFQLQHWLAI

As usually defined, the IC50 is the concentration needed to halve the response being measured. Regarding `CCOC(=O)c1[nH]c2nc1-c1ccc(NC(=O)OC)cc1NC(=O)C(C)(C)CCC[C@@H]2c1ccc(-c2cc(F)ccc2-n2cc(C(F)(F)F)cn2)c[n+]1[O-]` [Example 1, (R,Z)-2-(1^5-(ethoxycarbonyl)-2^4-((methoxycarbonyl)amino)-5,5-dimethyl-4-oxo-1^1H-3-aza-1(4,2)-imidazola-2(1,2)-benzenacyclononaphane-9-yl)-5-(5-fluoro-2-(4-(trifluoromethyl)-1H-pyrazol-1-yl)phenyl)pyridine 1-oxide], the solubility kinetic at 24 h in data set [1] (setting [3]) stood at 39 µM (≈ 29.2 µg/mL); in data set [1] (setting [4]), 147 µM (≈ 110 µg/mL). Further, the half-inhibitory concentration (IC50) on Human plasma kallikrein was 119 nM; in data set [2], more than 10000 nM.
Regarding `CCOC(=O)c1[nH]c2nc1-c1ccc(NC(=O)OC)cc1NC(=O)C(C)(C)CCC[C@@H]2c1ccc(-c2cccc(Cl)c2F)c[n+]1[O-]` [Example 5, (R,Z)-5-(3-chloro-2-fluorophenyl)-2-(1^5-(ethoxycarbonyl)-2^4-((methoxycarbonyl)amino)-5,5-dimethyl-4-oxo-1^1H-3-aza-1(4,2)-imidazola-2(1,2)-benzenacyclononaphane-9-yl)pyridine 1-oxide], the solubility kinetic at 24 h in data set [1] (setting [3]) was 51 µM (≈ 33.2 µg/mL); in data set [1] (setting [4]), 108 µM (≈ 70.2 µg/mL). Also, the values for the concentration for half-maximal inhibition (IC50) (at Human plasma kallikrein; in data set [2]) were 0.49 nM and more than 10000 nM, respectively.
For `CCOC(=O)c1[nH]c2nc1-c1ccc(NC(=O)OC)cc1NC(=O)C(C)(C)CCC[C@@H]2c1ccc(-c2cc(F)ccc2OC(F)F)c[n+]1[O-]` [Example 3, (R,Z)-5-(2-(difluoromethoxy)-5-fluorophenyl)-2-(1^5-(ethoxycarbonyl)-2^4-((methoxycarbonyl)amino)-5,5-dimethyl-4-oxo-1^1H-3-aza-1(4,2)-imidazola-2(1,2)-benzenacyclononaphane-9-yl)pyridine 1-oxide], in that order: 40 µM (≈ 27.3 µg/mL), 171 µM (≈ 117 µg/mL), 1.4 nM and more than 10000 nM.
In the same order, the values of `CCOC(=O)c1[nH]c2nc1-c1ccc(NC(=O)OC)cc1NC(=O)C(C)(C)CCC[C@@H]2c1ccc(-c2cc(Cl)cnc2OC(F)F)c[n+]1[O-]` [Example 4, (R,Z)-5′-chloro-2′-(difluoromethoxy)-6-(1^5-(ethoxycarbonyl)-2^4-((methoxycarbonyl)amino)-5,5-dimethyl-4-oxo-1^1H-3-aza-1(4,2)-imidazola-2(1,2)-benzenacyclononaphane-9-yl)-[3,3′-bipyridine] 1-oxide] are 33 µM (≈ 23.1 µg/mL), 137 µM (≈ 95.8 µg/mL), 104 nM and more than 10000 nM.
As to `COC(=O)Nc1ccc2c(c1)NC(=O)C(C)(C)CCC[C@H](c1ccc(-c3cc(F)ccc3-n3cc(C(F)(F)F)cn3)c[n+]1[O-])c1nc-2c(C(=O)OC)[nH]1` [Example 6, (R,Z)-5-(5-fluoro-2-(4-(trifluoromethyl)-1H-pyrazol-1-yl)phenyl)-2-(1^5-(methoxycarbonyl)-2^4-((methoxycarbonyl)amino)-5,5-dimethyl-4-oxo-1^1H-3-aza-1(4,2)-imidazola-2(1,2)-benzenacyclononaphane-9-yl)pyridine 1-oxide], the solubility kinetic at 24 h in data set [1] (setting [3]) was found to be 64 µM (≈ 47.1 µg/mL); in data set [1] (setting [4]), 163 µM (≈ 120 µg/mL). The IC50 on Human plasma kallikrein was 122 nM; in data set [2], more than 10000 nM.
Turning to `CCOC(=O)c1[nH]c2nc1-c1ccc(NC(=O)OC)cc1NC(=O)C(C)(C)CCC[C@@H]2c1ccc(-c2cc(Cl)ccc2-n2cc(C(F)(F)F)cn2)c[n+]1[O-]` [Example 2, (R,Z)-5-(5-chloro-2-(4-(trifluoromethyl)-1H-pyrazol-1-yl)phenyl)-2-(1^5-(ethoxycarbonyl)-2^4-((methoxycarbonyl)amino)-5,5-dimethyl-4-oxo-1^1H-3-aza-1(4,2)-imidazola-2(1,2)-benzenacyclononaphane-9-yl)pyridine 1-oxide], the values for the solubility kinetic at 24 h in data set [1] (setting [3]) and in data set [1] (setting [4]) were 27 µM (≈ 20.7 µg/mL) and 104 µM (≈ 79.7 µg/mL), respectively. In addition, the IC50 at Human plasma kallikrein was 11 nM; in data set [2], more than 10000 nM.
